Consider 14 compounds from patent US20090118286A1, “Heterobicyclic Acrylamides” (Bayer Cropscience AG, priority 2005, published 2009).

A short description of data set [1]: log P determination by HPLC (EEC Directive 79/831 Annex V.A8, gradient method). The data set is classed as physicochemical. The note with it: HPLC, gradient method, acetonitrile/0.1% strength aqueous phosphoric acid or formic acid.
Data set [2] concerns larvae of the mustard beetle (Phaedon cochleariae). Kind of data set: Phaedon test, PHAECO spray treatment. The data set is classed as in vivo. The note with it: foliar, 168 h, 500 g a. i./ha, spray treatment of Chinese cabbage leaf discs, 7 d, read-out: % 7 d (effect in %, beetle larvae killed). On the procedure: [table] To produce a suitable preparation of active compound, 1 part by weight of active compound is mixed with the stated amounts of solvents and emulsifier, and the concentrate is diluted with emulsifier-containing water to the desired concentration. Discs of Chinese cabbage leaves (Brassica pekinensis) are sprayed with a preparation of active compound of the desired concentration and, after drying, populated with larvae of the mustard beetle (Phaedon cochleariae). After the desired period of time, the effect in % is determined. 100% means that all beetle larvae have been killed; 0% means that none of the beetle larvae have been killed.

The subject of data set [3] is caterpillars of the army worm (Spodoptera frugiperda). Kind of data set: Spodoptera frugiperda test, SPODFR spray treatment. The note with it: foliar, 168 h, 500 g a. i./ha, spray treatment of maize leaf discs, 7 d, read-out: % 7 d (effect in %, caterpillars killed). The data set is classed as in vivo.
For the next data set, the system named is Sphaerotheca fuliginea. In words: Sphaerotheca test (cucumber)/protective. Type of data set: in vivo. The note with it: application rate 500 ppm, protective, evaluation 7 days after inoculation. On the procedure:
[table] To produce a suitable preparation of active compound, 1 part by weight of active compound is mixed with the stated amounts of solvent and emulsifier, and the concentrate is diluted with water to the desired concentration. To test for protective activity, young cucumber plants are sprayed with the preparation of active compound at the stated application rate. 1 day after the treatment, the plants are inoculated with a spore suspension of Sphaerotheca fuliginea. The plants are then placed in a greenhouse at 70% relative atmospheric humidity and a temperature of 23° C. Evaluation is carried out 7 days after the inoculation. 0% means an efficacy which corresponds to that of the control, whereas an efficacy of 100% means that no infection is observed.

A further data set deals with Botrytis cinerea. In words: Botrytis test (bean)/protective. Type of data set: in vivo. To be noted: application rate 500 ppm, protective, evaluation 2 days after inoculation. On the procedure:
[table] To produce a suitable preparation of active compound, 1 part by weight of active compound is mixed with the stated amounts of solvents and emulsifier, and the concentrate is diluted with water to the desired concentration. To test for protective activity, young plants are sprayed with the preparation of active compound at the stated application rate. After the spray coating has dried on, 2 small pieces of agar colonized by Botrytis cinerea are placed onto each leaf. The inoculated plants are placed in a dark chamber at about 20° C. and 100% relative atmospheric humidity. 2 days after the inoculation, the size of the infected areas on the leaves is evaluated. 0% means an efficacy which corresponds to that of the control, whereas an efficacy of 100% means that no infection is observed.

Where two headings read alike, the source gives them in different places.

In the case of `CC(C)NC(=O)/C=C/c1c(-c2ccccc2Cl)nc2sc(C(F)(F)Cl)nn12` [Example 0724], in data set [1] (read-out: Physical data: logP), the chromatographic logP came out at 3.36. The pest or weed control at 500 g/ha in data set [2] and in data set [3] was 100% in each case.
On to `C=CCN(C)C(=O)/C=C/c1c(-c2ccc(Cl)cc2)nc2sc(C(F)(F)F)nn12` [Example 0067], for which the chromatographic logP in data set [1] (read-out: Physical data (logP)) was found to be 3.95. Further, in the data set with Sphaerotheca fuliginea, the Efficacy in % amounted to 90%.
Take `CC(NC(=O)/C=C/c1c(-c2ccc(Cl)c(Cl)c2)nc2sc(C(F)(F)F)nn12)c1ccccn1` (stereo not shown) [Example 0793]: the chromatographic logP in data set [1] (read-out: Physical data: logP) was determined as 3.26. Besides, the pest or weed control at 500 g/ha in data set [2] amounted to 100%.
Regarding `CC(NC(=O)/C=C/c1c(-c2ccc(F)cc2Cl)nc2sc(C(F)(F)F)nn12)C(F)(F)F` (stereo not shown) [Example 0598], the chromatographic logP in data set [1] (read-out: Physical data: log P) stood at 3.79. The pest or weed control at 500 g/ha in data set [2] and in data set [3] was 100% each time.
As for `CC(C)CN(C)C(=O)/C=C/c1c(-c2ccccc2)nc2sc(C(F)(F)F)nn12` [Example 0913], in the data set on Sphaerotheca fuliginea, the Efficacy in % is 90%.
On to `CC(C)NC(=O)/C=C/c1c(-c2ccccc2Cl)nc2sc(C(F)(F)F)nn12` [Example 0148], for which the chromatographic logP in data set [1] (read-out: Physical data (logP)) was 3.13. Further, the pest or weed control at 500 g/ha in data set [2] turned out to be 83%; in data set [3], 100%.
On to `O=C(/C=C/c1c(-c2ccccc2Cl)nc2sc(C(F)(F)F)nn12)NC1CC1` [Example 0152], for which the chromatographic logP in data set [1] (read-out: Physical data (logP)) was found to be 2.88. Also, the pest or weed control at 500 g/ha in data set [2] amounted to 100%.
`COc1ccc(-c2nc3sc(C(F)(F)F)nn3c2/C=C/C(=O)NC(C)(C)C)cc1OC` [Example 0654]: in data set [1] (read-out: Physical data: logP), the chromatographic logP is 3.37. In data set [2], the pest or weed control at 500 g/ha is 100%.
For `O=C(/C=C/c1c(-c2cccc(Cl)c2)nc2sc(C(F)(F)F)nn12)N1CCOCC1` [Example 0142], in data set [1] (read-out: Physical data (logP)), the chromatographic logP came out at 3.31. Moreover, in data set [2], the pest or weed control at 500 g/ha turned out to be 100%.
Take `CCN(CC)C(=O)/C=C/c1c(-c2ccccc2)nc2sc(C(F)(F)F)nn12` [Example 0912]: the Efficacy in % was 95% in the data set with Sphaerotheca fuliginea and 93% in the data set with Botrytis cinerea.
In the case of `O=C(/C=C/c1c(-c2ccccc2Cl)nc2sc(C(F)(F)Cl)nn12)NC1CC1` [Example 0728], the chromatographic logP in data set [1] (read-out: Physical data: logP) was 3.07. Moreover, the pest or weed control at 500 g/ha in data set [2] and in data set [3] was 100% each time.
`CCCC(C)NC(=O)/C=C/c1c(-c2ccccc2Cl)nc2sc(C(F)(F)Cl)nn12` (stereo not shown) [Example 0734]: the chromatographic logP in data set [1] (read-out: Physical data: logP) stood at 4.06. The pest or weed control at 500 g/ha in data set [2] and in data set [3] was 100% in each case.
On to `CC(NC(=O)/C=C/c1c(-c2ccccc2Cl)nc2sc(C(F)(F)F)nn12)c1ccccn1` (stereo not shown) [Example 0203], for which the chromatographic logP in data set [1] (read-out: Physical data (logP)) came out at 2.39. Besides, the pest or weed control at 500 g/ha in data set [2] was 83%; in data set [3] it was 100%.
For the compound `O=C(/C=C/c1c(-c2ccc(F)cc2Cl)nc2sc(C(F)(F)F)nn12)NC1CC1` [Example 0585], the chromatographic logP in data set [1] (read-out: Physical data: log P) amounted to 3.03. Moreover, the pest or weed control at 500 g/ha in data set [2] and in data set [3] was 100% in each case.
